The source of these data is US7960377B2 (priority 2008, dated 2011).

As usually defined, the EC50 is the midpoint of the concentration-response curve.

Where two headings read alike, the source gives them in different places.

What all share (assay): cell-based
In one test the target is human CB1 receptor (Homo sapiens, UniProt P21554).
The target in another test is human CB2 receptor (Homo sapiens, UniProt P34972). Type of test: cell-based. As to conditions: for inverse agonist mark, human CB2 receptor: asterisk at the compound number.
human CB2 receptor, sequence (P34972 whole entry): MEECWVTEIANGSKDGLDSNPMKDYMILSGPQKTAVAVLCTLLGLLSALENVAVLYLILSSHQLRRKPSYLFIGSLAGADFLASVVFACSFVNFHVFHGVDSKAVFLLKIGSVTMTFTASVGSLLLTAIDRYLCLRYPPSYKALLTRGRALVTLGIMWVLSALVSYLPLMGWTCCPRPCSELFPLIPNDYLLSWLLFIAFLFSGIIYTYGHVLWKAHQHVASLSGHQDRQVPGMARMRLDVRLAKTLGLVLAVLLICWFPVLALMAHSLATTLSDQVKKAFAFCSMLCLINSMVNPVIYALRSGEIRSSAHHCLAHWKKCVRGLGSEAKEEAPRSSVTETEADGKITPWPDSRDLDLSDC
For the next test, the target named is T1, rat CB2 receptor (Rattus norvegicus, UniProt Q9QZN9).
T1 sequence (Q9QZN9 1-360): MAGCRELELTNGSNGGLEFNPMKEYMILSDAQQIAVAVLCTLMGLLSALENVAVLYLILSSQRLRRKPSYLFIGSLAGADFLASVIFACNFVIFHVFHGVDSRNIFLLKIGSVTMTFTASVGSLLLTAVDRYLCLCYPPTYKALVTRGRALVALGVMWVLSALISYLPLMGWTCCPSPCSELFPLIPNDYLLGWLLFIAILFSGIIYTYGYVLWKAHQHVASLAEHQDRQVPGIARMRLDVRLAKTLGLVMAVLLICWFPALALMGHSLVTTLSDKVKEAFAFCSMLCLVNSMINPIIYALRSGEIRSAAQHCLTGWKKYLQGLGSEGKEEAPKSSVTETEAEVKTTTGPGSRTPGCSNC
Type of test: cell-based. The settings on record: for inverse agonist mark, rat CB2 receptor: asterisk at the compound number.

Setting [1] is: change in intracellular cAMP, CHO-K1 hCB2 cells, class AR, read-out: EC50 values for human CB2 receptor.

human CB1 receptor, sequence (P21554 whole entry): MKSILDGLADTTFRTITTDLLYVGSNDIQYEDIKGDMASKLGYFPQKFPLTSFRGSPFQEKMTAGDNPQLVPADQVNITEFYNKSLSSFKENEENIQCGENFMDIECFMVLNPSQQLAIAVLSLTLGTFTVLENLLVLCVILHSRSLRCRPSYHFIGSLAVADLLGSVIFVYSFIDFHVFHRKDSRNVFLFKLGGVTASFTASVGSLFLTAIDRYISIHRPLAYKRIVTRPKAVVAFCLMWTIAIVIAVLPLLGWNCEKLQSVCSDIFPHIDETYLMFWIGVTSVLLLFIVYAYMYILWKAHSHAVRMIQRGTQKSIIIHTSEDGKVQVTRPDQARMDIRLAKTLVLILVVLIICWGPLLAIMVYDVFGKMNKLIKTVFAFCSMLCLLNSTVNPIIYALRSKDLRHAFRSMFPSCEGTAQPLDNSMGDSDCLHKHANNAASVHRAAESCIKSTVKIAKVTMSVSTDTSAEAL

As for `O=C(c1cnc2c(c1)N(S(=O)(=O)c1ccccc1)CCO2)N1CCOCC1` [Example 4, morpholino(1-(phenyl-sulfonyl)-2,3-dihydro-1H-pyrido[2,3-b][1,4]oxazin-7-yl)methanone], the half-maximal effective concentration (EC50) at human CB1 receptor was over 30 µM; on human CB2 receptor (setting [1]) it was over 30 µM; at rat CB2 receptor it was over 30000 nM.
With `CNC(=O)[C@@H](NC(=O)c1cnc2c(c1)N(S(=O)(=O)c1ccccc1)CCO2)C(C)(C)C` [Example 6, (S)-N-(3,3-dimethyl-1-(methylamino)-1-oxobutan-2-yl)-1-(phenyl-sulfonyl)-2,3-dihydro-1H-pyrido[2,3-b][1,4]oxazine-7-carboxamide], the values for the half-maximal effective concentration (EC50) at human CB1 receptor, on human CB2 receptor and at rat CB2 receptor were over 30 µM, over 30 µM and at most 30 nM, respectively. In addition, the “inverse agonist mark, rat CB2 receptor” value on rat CB2 receptor is 2, 3, 6*, 7, 8, 10, 11, 12, 15*, 20, 21, 22, 23, 24, 25, 26, 27, 33, 39,.
Take `CNC(=O)[C@@H](NC(=O)c1cnc2c(c1)N(S(=O)(=O)c1ccc(F)cc1)CCO2)C(C)(C)C` [Example 15, (S)-N-(3,3-dimethyl-1-(methylamino)-1-oxobutan-2-yl)-1-(4-fluorophenyl-sulfonyl)-2,3-dihydro-1H-pyrido [2,3-b][1,4]oxazine-7-carboxamide]: the 50% effective concentration (EC50) on human CB1 receptor is over 30 µM; at rat CB2 receptor, at most 30 nM. Moreover, the “inverse agonist mark, human CB2 receptor” value on human CB2 receptor is 1, 5, 9, 12, 14, 15*, 28, 29, 34, 35, 36, 37, 41, 44, 49, 50, 51, 54, 56,. Moreover, the “inverse agonist mark, rat CB2 receptor” value on rat CB2 receptor is on record as 2, 3, 6*, 7, 8, 10, 11, 12, 15*, 20, 21, 22, 23, 24, 25, 26, 27, 33, 39,.
Turning to `CC(C)(C)N(CCCN)C(=O)c1cnc2c(c1)N(S(=O)(=O)c1ccc(C(F)(F)F)cc1)CCO2` [Example 45, N-(3-aminopropyl)-N-tert-butyl-1-(4-(trifluoromethyl)phenylsulf-onyl)-2,3-dihydro-1H-pyrido[2,3-b][1,4]oxazine-7-carboxamide], the values for the half-maximal effective concentration (EC50) on human CB1 receptor, on human CB2 receptor (setting [1]) and at rat CB2 receptor were over 30 µM, over 30 µM and over 30000 nM, respectively.
As for `O=C(c1cnc2c(c1)N(S(=O)(=O)c1ccc(C(F)(F)F)cc1)CCO2)N1CCS(=O)(=O)CC1` [Example 52, 1′,1′-dioxide-thiomorpholino(1-(4-(trifluoromethyl)phenylsulf-onyl)-2,3-dihydro-1H-pyrido[2,3-b][1,4]oxazin-7-yl)methanone], the EC50 at human CB1 receptor is over 30 µM; at human CB2 receptor (setting [1]) it was over 30 µM; on rat CB2 receptor, over 30000 nM.
As for `CC(C)(C)NC(=O)c1cnc2c(c1)N(S(=O)(=O)c1ccc(Cl)c(Cl)c1)CCO2` [Example 55, N-tert-butyl-1-(3,4-dichlorophenylsulfonyl)-2,3-dihydro-1H-pyrido[2,3-b][1,4]oxazine-7-carboxamide], the EC50 on human CB1 receptor was over 30 µM; on human CB2 receptor, at most 0.03 µM; on rat CB2 receptor, at most 30 nM.
Turning to `CCC(C)(C)NC(=O)c1cnc2c(c1)N(S(=O)(=O)c1ccc(C(F)(F)F)cc1)CCO2` [Example 66, N-tert-pentyl-1-(4-(trifluoromethyl)phenylsulf-onyl)-2,3-dihydro-1H-pyrido[2,3-b][1,4]oxazine-7-carboxamide], the results for the concentration giving a half-maximal response (EC50) at human CB1 receptor, at human CB2 receptor and at rat CB2 receptor were over 30 µM, at most 0.03 µM and at most 30 nM, respectively.
As to `O=C(O)[C@H]1CCCCN1C(=O)c1cnc2c(c1)N(S(=O)(=O)c1ccc(C(F)(F)F)cc1)CCO2` [Example 78, (R)-1-(1-(4-(trifluoro-methyl)phenylsulfonyl)-2,3-dihydro-1H-pyrido-[2,3-b][1,4]oxazine-7-carbonyl)piperidine-2-carboxylic acid], the 50% effective concentration (EC50) is over 30 µM on human CB1 receptor, over 30 µM on human CB2 receptor (setting [1]) and over 30000 nM on rat CB2 receptor.
For `CC(C)(C)NC(=O)c1cnc2c(c1)N(S(=O)(=O)c1ccc(Cl)s1)CCO2` [Example 94, N-tert-butyl-1-(5-chlorothiophen-2-ylsulfonyl)-2,3-dihydro-1H-pyrido[2,3-b][1,4]oxazine-7-carboxamide], the concentration for a half-maximal effect (EC50) was over 30 µM at human CB1 receptor, over 30 µM at human CB2 receptor (setting [1]) and over 30000 nM on rat CB2 receptor.
Turning to `CS(=O)(=O)N1CCN(C(=O)c2cnc3c(c2)N(S(=O)(=O)c2ccc(Cl)c(Cl)c2)CCO3)CC1` [Example 116, (1-(3,4-dichloro-phenylsulfonyl)-2,3-dihydro-1H-pyrido[2,3-b][1,4]oxazin-7-yl)(4-(methylsulfonyl)piperazin-1-yl)methanone], the concentration for a half-maximal effect (EC50) is over 30 µM at human CB1 receptor, over 30 µM at human CB2 receptor (setting [1]) and over 30000 nM at rat CB2 receptor.
With `O=C(c1cnc2c(c1)N(S(=O)(=O)c1ccc(Cl)c(Cl)c1)CCO2)N1CCN(S(=O)(=O)c2ccccc2)CC1` [Example 118, (1-(3,4-dichlorophenyl-sulfonyl)-2,3-dihydro-1H-pyrido[2,3-b][1,4]oxazin-7-yl)(4-(phenylsulfonyl)piperazin-1-yl)methanone], the EC50 at human CB2 receptor (setting [1]) was over 30 µM. The “inverse agonist mark, rat CB2 receptor” value at rat CB2 receptor is reported as 118*, 120, 123, 125, 127, 134, 143, 145, 161, 174, 175, 176, 198,.
In the case of `CN(C)S(=O)(=O)N1CCN(C(=O)c2cnc3c(c2)N(S(=O)(=O)c2ccc(Cl)c(Cl)c2)CCO3)CC1` [Example 119, 4-(1-(3,4-dichlorophenylsulfonyl)-2,3-dihydro-1H-pyrido [2,3-b][1,4]oxazine-7-carbonyl)-N,N-dimethyl piperazine-1-sulfonamide], the 50% effective concentration (EC50) at human CB1 receptor is over 30 µM; at human CB2 receptor (setting [1]) it was over 30 µM; on rat CB2 receptor, over 30000 nM.
As to `O=C(N[C@@H]1CCCC[C@H]1O)c1cnc2c(c1)N(S(=O)(=O)c1ccc(Cl)c(Cl)c1)CCO2` [Example 135, 1-(3,4-dichlorophenyl-sulfonyl)-N-((1R,2R)-2-hydroxycyclohexyl)-2,3-dihydro-1H-pyrido[2,3-b][1,4]oxazine-7-carboxamide], the concentration for a half-maximal effect (EC50) at human CB1 receptor is over 30 µM; at human CB2 receptor, over 30 µM; on rat CB2 receptor, at most 30 nM.
As for `CCC(C)(C)NC(=O)c1cnc2c(c1)N(S(=O)(=O)N1CCC(C(F)(F)F)CC1)CCO2` [Example 151, N-tert-pentyl-1-(4-(trifluoromethyl)piperidin-1-ylsulfonyl)-2,3-dihydro-1H-pyrido[2,3-b][1,4]oxazine-7-carboxamide], the half-maximal effective concentration (EC50) on human CB2 receptor was at most 0.03 µM; at rat CB2 receptor, at most 30 nM.
`CC(C)(C)c1cc(NC(=O)c2cnc3c(c2)N(S(=O)(=O)N2CCC(C(F)(F)F)CC2)CCO3)no1` [Example 154, N-(5-tert-butylisoxazol-3-yl)-1-(4-(trifluoromethyl)piperidin-1-ylsulfonyl)-2,3-dihydro-1H-pyrido[2,3-b][1,4]oxazine-7-carboxamide]: the “inverse agonist mark, human CB2 receptor” value at human CB2 receptor is 121, 124, 131, 136, 137, 138, 139, 146, 150, 152, 154*, 155, 157,. Further, on rat CB2 receptor, the EC50 was at most 30 nM and the “inverse agonist mark, rat CB2 receptor” value is 146, 148, 149, 150, 151, 152, 153*, 154*, 155, 156, 157, 163, 164,.
Turning to `CC(C)(C)NC(=O)c1cnc2c(c1)N(S(=O)(=O)N1CCC(F)(F)CC1)CCO2` [Example 156, N-tert-butyl-1-(4,4-difluoropiperidin-1-ylsulfonyl)-2,3-dihydro-1H-pyrido[2,3-b][1,4]oxazine-7-carboxamide], the EC50 at human CB2 receptor is at most 0.03 µM; at rat CB2 receptor it was at most 30 nM.
Regarding `CC(C)(C)c1cc(NC(=O)c2cnc3c(c2)N(S(=O)(=O)N2CCC(F)(F)C2)CCO3)no1` [Example 165, N-(5-tert-butylisoxazol-3-yl)-1-(3,3-difluoro-pyrrolidin-1-ylsulfonyl)-2,3-dihydro-1H-pyrido-[2,3-b][1,4]oxazine-7-carboxamide], at human CB2 receptor, the EC50 was over 30 µM. Further, the “inverse agonist mark, rat CB2 receptor” value at rat CB2 receptor is 108, 114, 117, 122, 126, 128, 129, 130, 141, 147, 162*, 165*, 179,.
Regarding `CC(C)(C)NC(=O)c1cnc2c(c1)N(S(=O)(=O)N1CCC(Cl)CC1)CCO2` [Example 184, N-tert-butyl-1-(4-chloropiperidin-1-ylsulfonyl)-2,3-dihydro-1H-pyrido[2,3-b][1,4]oxazine-7-carboxamide], the half-maximal effective concentration (EC50) on human CB2 receptor is over 30 µM; at rat CB2 receptor it was at most 30 nM.
The like results for `CCC(C)(C)NC(=O)c1cnc2c(c1)N(S(=O)(=O)N1CCC(Cl)CC1)CCO2` [Example 185, 1-(4-chloropiperidin-1-ylsulfonyl)-N-tert-pentyl-2,3-dihydro-1H-pyrido[2,3-b][1,4]oxazine-7-carboxamide] were, in that order, over 30 µM and at most 30 nM.
The like results for `CC(C)(CO)CNC(=O)c1cnc2c(c1)N(S(=O)(=O)N1CCC(Cl)CC1)CCO2` [Example 187, 1-(4-chloropiperidin-1-ylsulfonyl)-N-(3-hydroxy-2,2-dimethylpropyl)-2,3-dihydro-1H-pyrido[2,3-b][1,4]oxazine-7-carboxamide] were, in that order, over 30 µM and at most 30 nM.
The like results for `CC(C)(CO)CNC(=O)c1cnc2c(c1)N(S(=O)(=O)N1CC(F)(F)C1)CCO2` [Example 196, 1-(3,3-difluoroazetidin-1-ylsulfonyl)-N-(3-hydroxy-2,2-dimethylpropyl)-2,3-dihydro-1H-pyrido[2,3-b][1,4]oxazine-7-carboxamide] were, in that order, over 30 µM and at most 30 nM.
Turning to `O=C(O)CC1COCCN1C(=O)c1cnc2c(c1)N(S(=O)(=O)c1ccc(C(F)(F)F)cc1)CCO2` (stereo not shown) [Example 207], the half-maximal effective concentration (EC50) at human CB2 receptor (setting [1]) was over 30 µM; at rat CB2 receptor (change in intracellular cAMP, CHO-K1 rCB2 cells, class AR, read-out: EC50 values for rat CB2 receptor) it was over 30000 nM.
For the compound `CC(C)(C)c1nnc(-c2cnc3c(c2)N(S(=O)(=O)c2ccc(F)cc2)CCO3)o1` [Example 212, 7-(5-tert-butyl-1,3,4-oxadiazol-2-yl)-1-(4-fluorophenylsulfonyl)-2,3-dihydro-1H-pyrido[2,3-b][1,4]oxazine], the half-maximal effective concentration (EC50) on human CB2 receptor is at most 0.03 µM; on rat CB2 receptor, at most 30 nM.
